ChEMBL document CHEMBL3817799, “N-Nitrosulfonamides: A new chemotype for carbonic anhydrase inhibition” (Bioorg Med Chem, 2016)

Key:
[1] = Inhibition of Malassezia globosa beta carbonic anhydrase preincubated for 15 mins prior to testing by stopped flow CO2 hydrase assay
Carbonic anhydrase 9 = Carbonic anhydrase 9 (Homo sapiens, UniProt Q16790); experiment: Inhibition of human recombinant carbonic anhydrase 9 preincubated for 15 mins prior to testing by stopped flow CO2 hydrase assay
Malassezia globosa = experiment: Potency index, ratio of acetazolamide Ki to compound Ki for Malassezia globosa beta carbonic anhydrase
Carbonic anhydrase 2 = Carbonic anhydrase 2 (Homo sapiens, UniProt P00918); experiment: Inhibition of human recombinant carbonic anhydrase 2 preincubated for 15 mins prior to testing by stopped flow CO2 hydrase assay

`Nc1cccc(S(=O)(=O)N[N+](=O)[O-])c1` gave a Ki [1] of 2.75 µM, a Ki (Carbonic anhydrase 9) greater than 50 µM and a Ratio Ki (Malassezia globosa) of 10. For the same compound, the Ki (Carbonic anhydrase 2) was 5.11 µM.
For `CN(C)c1ccc(S(=O)(=O)N[N+](=O)[O-])cc1`, the Ki [1] was 0.22 µM, the Ratio Ki (Malassezia globosa) was 10 and the Ki (Carbonic anhydrase 2) was greater than 50 µM.
Work on `N#CCNc1ccc(S(=O)(=O)N[N+](=O)[O-])cc1` yielded a Ki [1] of 3.49 µM, a Ki (Carbonic anhydrase 9) of 2 µM and a Ratio Ki (Malassezia globosa) of 10. The Ki (Carbonic anhydrase 2) was 1.35 µM.
With `Nc1nnc(S(=O)(=O)N[N+](=O)[O-])s1` the Ki [1] was 4.5 µM, the Ki (Carbonic anhydrase 9) was 0.84 µM and the Ratio Ki (Malassezia globosa) was 10. The Ki (Carbonic anhydrase 2) was 4.52 µM.
Work on `NCc1ccc(S(=O)(=O)N[N+](=O)[O-])cc1` yielded a Ki [1] of 8.09 µM and a Ki (Carbonic anhydrase 9) of 5.99 µM.
`CC(=O)Nc1nnc(S(N)(=O)=O)s1` [ACETAZOLAMIDE] showed a Ki [1] of 74 µM.
